Entries after “also recorded” stand apart in the source; their conditions may differ. Where two headings read alike, the source gives them in different places.
What was measured:
Solubility of IX-C = type: physicochemical
Swiss Webster mice = experiment: in vivo; conditions: male and female mice
Method: (§1) Swiss Webster mice (Harlan Sprague Dawley Inc., Indianapolis, Ind.) weighing between 25 and 30 g were given doses ranging from 0.2 to 1 ml/mouse. Five animals were used for each dose. No anesthesia was used for injection. Following the injection, animals were monitored daily for 7 days. The percentage survival vs. dose curve was constructed to estimate LD50.

in vivo = conditions: mouse, in vivo, iv
Method: as §1

[1] = Enzymatic degradation of IX-C particles in rabbit plasma; type: in vitro ADME; conditions: plasma samples
Method: (§2) Degradation of IX-C particles was investigated by incubating a suspension of the particles (25 mg) in the following solutions (each 1 ml) at 37° C.:0.1 N HCl, 0.1 N NaOH, saline, and rabbit plasma. The disappearance of the particles in the suspensions was noted by visual observations and the integrity of the particles was examined by scanning electron microscopy. To identify the degradation products, the residual solutions were subjected to analysis by HPLC. The HPLC system consisted of a RP-18 column, a Perkin-Elmer isocratic LC pump (Model 250), a PE Nelson 900 series interface, a Spectra-Physics UV/Vis detector (Model SP 8540) and a data station. The eluant (10% methanol in double distilled water) was run at 0.8 ml/min. with UV detection at 254 nm. Samples in HCl or NaOH were neutralized before injection. Plasma samples were first treated with PCA (0.4 N) and centrifuged to remove precipitate proteins. The supernatants were then injected for HPLC analysis.

[2] = Hydrolytic degradation of IX-C particles (HCl, NaOH, saline); type: physicochemical; conditions: supernatants of all samples (HCl, NaOH, saline, plasma)
Method: as §2

liver = experiment: Computed tomography of liver in normal rabbits; type: in vivo, New Zealand white rabbits; conditions: predicted from CT imaging data
Method: New Zealand white rabbits (male, 3.0 to 3.5 kg) were anesthetized by an intramuscular injection of a solution containing xylazine (8.6 mg/ml), ketamine (42.9 mg/ml), and acepromazine (1.4 mg/ml) at a dose of 0.4 ml/kg for a long-lasting effect. Intravenous catheters (22-gauge) were placed in a marginal ear vein for the introduction of particle suspension. Rabbits were positioned supine in a GE model 9800 Quick scanner (Milwaukee, Wis.). The particulate contrast agent of proper volume (8% I, w/v in saline) was injected through the catheterized ear vein over a period of 10 to 15 minutes.
CT imaging of radiopaque particles (80 mg I/ml) was carried out at doses of 100, 200, and 270 mg I/kg body weight respectively. Three rabbits were used for each dose level. CT imaging was done with a scan speed of 1.0 seconds, 120 kV, 280 mAs, and a 25-cm field of view. Sequential, contiguous 3-mm-thick slices through the abdomen and 5-mm-thick-slices through the pelvis were obtained before contrast injection, immediately after injection and at various times (15 and 30 minutes, 1, 2, and 6 hours, and 1, 2, and 7 days after injection). The rabbits were killed with an overdose of pentobarbital sodium (50 mg/kg) administered via the catheterized ear vein.
Densitometric analysis of the liver, kidney, aorta, and bladder were performed. […]

endothelial cells = conditions: background; cited from earlier work
[3] = background; cited from earlier work

With `CC(=O)N(CC1COC(=O)O1)c1c(I)c(C(=O)NCC2COC(=O)O2)c(I)c(C(=O)N2CCOC2=O)c1I` (centres unmarked) [IX-C, cyclic carbonate of IOXILAN] the lipid solubility (Solubility of IX-C) was “lipid soluble”, the solubility in acetone (Solubility of IX-C; acetone) was “soluble in acetone” and the “solubility in methylene chloride” value (Solubility of IX-C; methylene chloride) was “limited solubility in methylene chloride; also recorded: slightly soluble in methylene chloride”. The solubility in water (Solubility of IX-C; water) was “insoluble in water”, the “LD50 compared with those reported for other particulate CM” value (Swiss Webster mice) was “slightly higher than those reported for other particulate CM” and the LD50 at 168 h (in vivo; female Swiss Webster mice, tail vein, 7 days, read-out: LD50, females, as iodine) was 1200 mg/kg. It also gave an LD50 at 168 h (in vivo; female Swiss Webster mice, corresponding IX-C dose, read-out: LD50, females, as IX-C) of 2600 mg/kg, an LD50 at 168 h (in vivo; male Swiss Webster mice, tail vein, 7 days, read-out: LD50, males, as iodine) of 1400 mg/kg and an LD50 at 168 h (in vivo; male Swiss Webster mice, corresponding IX-C dose, read-out: LD50, males, as IX-C) of 3100 mg/kg. The “degradation product confirmed by FAB mass spectroscopy” value [1] was “presence of IOXILAN was confirmed”, the “degradation products (HPLC)” value [2] was “IOXILAN and carbon dioxide” and the predicted diagnostic dose (liver) was 100 mg I/kg body weight.
In the case of `O=C(CCCCC(=O)Nc1c(I)cc(I)c(C(=O)O)c1I)Nc1c(I)cc(I)c(C(=O)O)c1I` [Iodipamide, iodipamide], the “toxicity to endothelial cells” value (endothelial cells) is given as “toxic to endothelial cells”.
In the case of `CC(=O)N(CC(O)CO)c1c(I)c(C(=O)NCCO)c(I)c(C(=O)NCC(O)CO)c1I` (centres unmarked) [IOXILAN], the overall biological tolerance [3] is listed as “high overall biological tolerance”.

— US5686061A, “Particulate contrast media derived from non-ionic water soluble contrast agents for CT enhancement of hepatic tumors” (priority 1994, dated 1997)
